Values of other authors, collected in patent US6642179B2, “Inhibition of vegetative growth” (priority 2000, dated 2003).

System: grass
Details: versus 5-acetamido-2-methyltrifluoromethanesulfonanilide

For `CC(=O)Nc1cc(NS(=O)(=O)C(F)(F)F)c(C)cc1C` [5-acetamido-2,4-dimethyltrifluoromethanesulfonanilide], the “effectiveness as grass growth regulator compared with 5-acetamido-2-methyltrifluoromethanesulfonanilide” value is given as “much more effective grass growth regulator”.
